Experimental data taken from article PMC7909954 (eLife, 2021).

Molecular target: MOR (Homo sapiens, UniProt P35372)
Assay: cell-based

Sequence of MOR (P35372 whole entry): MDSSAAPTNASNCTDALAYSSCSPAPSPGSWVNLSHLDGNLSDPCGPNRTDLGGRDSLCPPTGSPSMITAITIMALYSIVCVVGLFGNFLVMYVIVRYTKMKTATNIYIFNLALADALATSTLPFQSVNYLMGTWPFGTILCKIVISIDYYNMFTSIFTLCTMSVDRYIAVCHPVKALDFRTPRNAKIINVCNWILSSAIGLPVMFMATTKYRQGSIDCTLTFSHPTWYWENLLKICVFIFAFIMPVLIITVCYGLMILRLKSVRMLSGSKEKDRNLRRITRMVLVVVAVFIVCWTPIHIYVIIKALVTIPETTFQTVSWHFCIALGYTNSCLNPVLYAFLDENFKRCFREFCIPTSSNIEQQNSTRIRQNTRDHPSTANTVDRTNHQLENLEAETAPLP

## NCc1cccc(C(=O)N[C@@H]2CCC3C4Cc5ccc(O)c6c5[C@@]3(CCN4CC3CC3)C2O6)c1 (stereo partly drawn) [MP1207, 3-(Aminomethyl)-N-((7R,12bS)−3-(cyclopropylmethyl)−9-hydroxy-2,3,4,4a,5,6,7,7a-octahydro-1H-4,12-methanobenzofuro[3,2-e]isoquinolin-7-yl)benzamide]
HEK-293T, read-out: Emax% cAMP inhibition hMOR
  Emax: 33 ± 1.4%
pEC50 cAMP inhibition hMOR
  EC50: 33.9 pM
